Organism: Rattus norvegicus
Assay: Open TG-GATES - Regimen: Daily Repeat
Assay type: toxicity, organism-based, Sprague-Dawley
Parameters: regimen Daily Repeat, gender Male, age 6 weeks
Conditions: in vivo, po, 200 mg/kg, […], route gavage, dose level Middle; for KIDNEY_L / KIDNEY_R / KIDNEY_TOTAL: tissue Kidney; for LIVER: tissue Liver; for A/G / ALP / ALT / AST / BUN / CRE / Ca / Cl / DBIL / GLC / IP / K / LDH / Na / PL / RALB / TBIL / TC / TG / TP / gamma-GTP: tissue Plasma

C[C@](N)(Cc1ccc(O)c(O)c1)C(=O)O [METHYLDOPA]
Lym (tissue Blood, time 28 day): 81.2%
MCH (tissue Blood, time 28 day): 19.8 pg
MCHC (tissue Blood, time 28 day): 35.1%
MCV (tissue Blood, time 28 day): 56.5 fL
Mono (tissue Blood, time 28 day): 1.4%
Neu (tissue Blood, time 28 day): 15.6%
PT (tissue Blood, time 28 day): 14 s
Plat (tissue Blood, time 28 day): 101.7 x10_4/uL
RBC (tissue Blood, time 28 day): 760.8 x10_4/ul
Ret (tissue Blood, time 28 day): 2.3%
WBC (tissue Blood, time 28 day): 76.9 x10_2/uL
KIDNEY_L (time 7 day): 0.9 g
KIDNEY_R (time 7 day): 0.9 g
KIDNEY_TOTAL (time 7 day): 1.9 g
KIDNEY_L (time 14 day): 1.1 g
KIDNEY_R (time 14 day): 1 g
KIDNEY_TOTAL (time 14 day): 2.1 g
KIDNEY_L (time 28 day): 1.2 g
KIDNEY_R (time 28 day): 1.2 g
KIDNEY_TOTAL (time 28 day): 2.4 g
LIVER (time 7 day): 8.8 g
LIVER (time 14 day): 10.2 g
LIVER (time 28 day): 12.9 g
A/G (time 7 day): 0.9
ALP (time 7 day): 1381.2 IU/L
ALT (time 7 day): 45.4 IU/L
AST (time 7 day): 67.8 IU/L
BUN (time 7 day): 14.2 mg/dL
CRE (time 7 day): 0.2 mg/dL
Ca (time 7 day): 10.8 mg/dL
Cl (time 7 day): 107.4 meq/L
DBIL (time 7 day): 0.01 mg/dL
GLC (time 7 day): 179.8 mg/dL
IP (time 7 day): 7.7 mg/dL
K (time 7 day): 4.3 meq/L
LDH (time 7 day): 54.2 IU/L
Na (time 7 day): 143.4 meq/L
PL (time 7 day): 132.4 mg/dL
RALB (time 7 day): 2.7 g/dL
TBIL (time 7 day): 0.068 mg/dL
TC (time 7 day): 84.2 mg/dL
TG (time 7 day): 36.2 mg/dL
TP (time 7 day): 5.7 g/dL
gamma-GTP (time 7 day): 0.8 IU/L
A/G (time 14 day): 0.8
ALP (time 14 day): 1316.6 IU/L
ALT (time 14 day): 42.2 IU/L
AST (time 14 day): 61.8 IU/L
BUN (time 14 day): 12.6 mg/dL
CRE (time 14 day): 0.2 mg/dL
Ca (time 14 day): 11 mg/dL
Cl (time 14 day): 105.2 meq/L
DBIL (time 14 day): 0.002 mg/dL
GLC (time 14 day): 182.2 mg/dL
IP (time 14 day): 7.1 mg/dL
K (time 14 day): 4.4 meq/L
LDH (time 14 day): 58 IU/L
Na (time 14 day): 141.6 meq/L
PL (time 14 day): 137 mg/dL
RALB (time 14 day): 2.6 g/dL
TBIL (time 14 day): 0.054 mg/dL
TC (time 14 day): 87.6 mg/dL
TG (time 14 day): 35.2 mg/dL
TP (time 14 day): 5.7 g/dL
gamma-GTP (time 14 day): 0.8 IU/L
A/G (time 28 day): 0.8
ALP (time 28 day): 1006.8 IU/L
ALT (time 28 day): 39.8 IU/L
AST (time 28 day): 55.4 IU/L
BUN (time 28 day): 13.2 mg/dL
CRE (time 28 day): 0.2 mg/dL
Ca (time 28 day): 10.7 mg/dL
Cl (time 28 day): 104.8 meq/L
DBIL (time 28 day): 0.018 mg/dL
GLC (time 28 day): 182.2 mg/dL
IP (time 28 day): 6.4 mg/dL
K (time 28 day): 4 meq/L
LDH (time 28 day): 39.8 IU/L
Na (time 28 day): 142.8 meq/L
PL (time 28 day): 144.6 mg/dL
RALB (time 28 day): 2.7 g/dL
TBIL (time 28 day): 0.052 mg/dL
TC (time 28 day): 89.2 mg/dL
TG (time 28 day): 50.8 mg/dL
TP (time 28 day): 6.1 g/dL
gamma-GTP (time 28 day): 1.2 IU/L

From ChEMBL document CHEMBL3885861, “Open TG-GATES”
